The results in this text go back to paper PMC8746574 (Molecules, 2022).

Where two headings read alike, the source gives them in different places.

Data set [1] concerns Vero E6 cells.
Data set [2] concerns TZM-bl cells. Put plainly: MTT cytotoxicity assay in TZM-bl cells. Type of data set: cell-based. The note with it: MTT test. As to the method:
(§1) The cytotoxicity of the obtained compounds was assessed in TZM-bl cells using the MTT test. The preparations were diluted with DMEM medium so that their starting concentration was 1000 μM and the final volume of DMSO was no more than 1%. Additionally, we compared the cytotoxicity of DMEM and medium with 1% DMSO in TZM-bl cells and found no significant differences in cell survival. […] A range of non-toxic concentrations was determined for each compound and used in subsequent experiments on their antiviral activity.
(§2) TZM-bl cells were seeded into 96-well culture plates (100 μL of cell suspension or 10^4 p cells per well) and placed in a CO2 incubator. The test compounds were dissolved in DMSO at a concentration of 100 mM. After 24 h of incubation, various concentrations of the test compounds (1000, 500, 250, 125, 62.5, 31.25, and 15.6 μM) were added by titration to the TZM-bl cell culture, in triplicates. DMSO was added to the control wells at a concentration of no more than 1%. The plates with the introduced drugs were incubated in a CO2 incubator at 37 °C under 5% CO2. After 72 h of incubation, 20 μL of MTT working solution (5 mg/mL) was added to each well and the plates were again incubated under the same conditions. After 2 h, the plates were removed from the CO2 incubator, and the medium in each well was replaced with DMSO solution (50 μL per well). The plates were shaken gently to dissolve the formazan crystals. The optical density of each well was determined at 570 nm using a Varioscan LUX plate reader (Thermo scientific). The survival rate of TZM-bl cells in the presence of the tested compounds was calculated using the formula: (OD of experimental wells—OD of medium)/(OD of control wells—OD of medium) × 100%, where OD is optical density.
A general note: Tetrazolium dyes change colour on reduction, which living cells bring about.

Data set [3] can be described thus: MTT cytotoxicity assay in TZM-bl cells. The class given is cell-based. The note with it: human; TZM-bl cells, MTT test, 72 h incubation. The protocol: as §1, §2
Data set [4] deals with SARS-CoV-2 (three strains). Nature of the data set: Antiviral activity against three strains of SARS-CoV-2 on Vero E6 cells (summary statements).
Data set [5] is described as follows: in vitro. The note with it: African green monkey.
For data set [6], the system named is HIV-1 pseudotyped viruses. Nature of the data set: Inhibitory activity against HIV-1 pseudoviruses in TZM-bl cells (summary statements). The class given is cell-based. The note with it: neutralizing assays, SF162.LS, QH0692, 16RU28. As to the method:
To evaluate the inhibitory activities of the synthesized compounds, HIV-1 pseudotyped viruses SF162.LS and […] subtype B (which are included in the international reference panel), and pseudotyped viruses of the recombinant form CRF63_02A—16RU28 HIV-1 were used. Genetic variant CRF63_02A is currently the dominant type in Siberia and is rapidly spreading in the rest of the Russian Federation.
The anti-HIV-1 activity of the tested compounds was performed using the TZM-bl assay, carried out in 96-well culture plates, as described previously. Briefly, serial 2-fold dilutions of the tested compounds were prepared in DMEM growth medium, 200 TCID50 pseudovirus were added to each well and incubated for 1 h at 37 °C under 5% CO2. Trypsinized TZM-bl cell suspension was then added (100 μL of 2 × 10^5 cells/mL) and plates were further incubated at 37 °C under 5% CO2. After 48 h, the luminescence signal was recorded using the luciferase assay system (Promega). The percent inhibition for each compound was calculated as the ratio between the relative luminescence unit (RLU) values of the test wells (sample + pseudovirus + cells) and the virus control (pseudovirus + cells). Samples were tested in triplicates, and the experiment was repeated twice.

Data set [7] concerns SARS-CoV-2 hCoV-19/Australia/VIC01/2020 (lineage B). Put plainly: Reduction of cytopathic effect on Vero E6 cells, MTT, strain hCoV-19/Australia/VIC01/2020. The class given is cell-based. A general note: Cytopathic effects are the visible damage that an infection or toxin causes in cultured cells.
Data set [8] concerns HIV-1 pseudotyped virus SF162.LS (subtype B). Put plainly: TZM-bl neutralization assay with HIV-1 env-pseudovirus SF162.LS. The class given is cell-based. The note with it: read-out: IC50 SF162.LS, TZM-bl cells, luciferase after 48 h.
The test system of data set [9] is HIV-1 pseudotyped virus 16RU28 (recombinant form CRF63_02A). Put plainly: TZM-bl neutralization assay with HIV-1 env-pseudovirus 16RU28. The note with it: read-out: IC50 16RU28; HIV-1 env-pseudovirus 16RU28 (CRF63_02A), TZM-bl cells, luciferase after 48 h. The class given is cell-based.
Data set [10] has as its system HIV-1 pseudotyped virus OH0692 (subtype B). Nature of the data set: TZM-bl neutralization assay with HIV-1 env-pseudovirus OH0692. The class given is cell-based. The note with it: read-out: IC50 OH0692; HIV-1 env-pseudovirus OH0692, TZM-bl cells, luciferase after 48 h.

For `CC1(C)[C@@H](O[C@H]2O[C@H](C(=O)O)[C@@H](O)[C@H](O)[C@H]2O[C@@H]2O[C@H](C(=O)O)[C@@H](O)[C@H](O)[C@H]2O)CC[C@]2(C)[C@H]3C(=O)C=C4[C@@H]5C[C@@](C)(C(=O)O)CC[C@]5(C)CC[C@@]4(C)[C@]3(C)CC[C@@H]12` [Glycyrrhizin], the “cytotoxicity on Vero cells (in words)” value in data set [1] is listed as “no cytotoxicity”. In [2], the “toxicity against the TZM-bl cell line (in words)” value is on record as “negligible toxicity”. This compound also gave a CC50 at 72 h in data set [3] above 1000 µM. Besides, the “antiviral activity against the three coronavirus strains (in words)” value in data set [4] was “no antiviral activity”. In addition, the CC50 in [5] is above 1000 µM. For the same compound, the “inhibitory activity against HIV-1 pseudotyped viruses (in words)” value in data set [6] was “did not exhibit any inhibitory activity”.

As to `CC1(C)C2CC[C@]3(C)C(C(=O)C=C4[C@@H]5C[C@@](C)(C(=O)O)CC[C@]5(C)CC[C@]43C)[C@@]2(C)CC[C@@H]1OC(=O)c1cccnc1` (stereo partly shown) [Nic-GA, glycyrrhetinic acid nicotinate], in [1], the “cytotoxicity on Vero cells (in words)” value is recorded as “less toxic to Vero cells than to Tzm-bl cells”. In data set [2], the “toxicity against the TZM-bl cell line (in words)” value is “some cytotoxic activity”. In data set [3], the CC50 at 72 h was below 7.8 µM. In addition, the “antiviral activity against the three coronavirus strains (in words)” value in [4] was “did not exhibit any antiviral activity”. Further, the CC50 in data set [5] amounted to 101 µM. The “inhibitory activity against HIV-1 pseudotyped viruses (in words)” value in data set [6] is given as “lack of inhibition”.

On to `CCC(CC)COC(=O)[C@H](C)N[P@](=O)(OC[C@H]1O[C@@](C#N)(c2ccc3c(N)ncnn23)[C@H](O)[C@@H]1O)Oc1ccccc1` [Remdesivir], for which the “parameter C of 4-parameter fit, toxity curve” value in data set [1] (SOFTmax PRO 4.0, primary data, plate with strain B) is on record as 428,695 µg/ml. The same compound registered a CC50 at 4 days in data set [5] (Vero E6 cells) of 711 ± 21.2 µM. Further, the IC50 turned out to be 3.3 ± 0.12 µM in data set [7] (Severe acute respiratory syndrome coronavirus 2, Vero C1008, 96 h, Vero E6 cells, 100 TCD50 per well, 4 days, MTT, lineage B, read-out: IC50 hCoV-19/Aust/VIC01/2020) and 2020 µg/mL in [7] (Vero C1008, SARS-CoV 2 (B), SOFTmax PRO 4.0, primary data, read-out: parameter C of 4-parameter fit, activity curve).

With Maraviroc [MVC], the values for the IC50 in data set [8], in [9] and in [10] were 0.002 µM, 0.0016 µM and 0.002 µM, respectively.
